This is an account of results in patent publication US20190177440A1, “COMPOUND OR SALT THEREOF, ANTI-INFLAMMATORY AGENT, ANTI-CANCER AGENT AGAINST LUNG CANCER, METHOD OF PRODUCING COMPOUND OR SALTS THEREOF, METHOD OF TREATING INFLAMMATORY DISEASES AND METHOD OF TREATING LUNG CANCER” (TFK CO., LTD., priority 2016, published 2019).

For one assay, the system named is NF-κB. The assay is described as follows: Nuclear NF-κB level in RAW264.7 cells stimulated with LPSp (Example 5). The conditions noted are these: final 1, 100 and 10,000 ng/mL, then LPSp 100 ng/mL, FIG. 5. The class given is cell-based, mouse. On the procedure: The culture medium was added to mouse macrophage cells (RAW264.7, ATCC) to prepare solutions at concentrations of 1.067×10^6 cells/mL. The solutions were seeded in 6 well plates in 3 mL portions, i.e., 3.2×10^6 cells/3 mL/well. After seeding, the test solution was incubated at 37° C. in a 5% CO2 for 2 hours, and 30 μL of the test solution was added to each well. After adding the test solution, the test solution was incubated at 37° C. in a 5% CO2 for 24 hours. The culture supernatant of each of the wells was then collected in a 15 mL tube. Then, 1 mL of the fresh culture solution was added to each of the wells, and after spreading over the entire well, the operation of collecting the culture solution into the 15 mL tube was repeated twice. Thereafter, the culture solution collected in the 15 mL tube was centrifuged at 1,000 rpm for 3 minutes, the supernatant was removed, and 3 mL of a new culture solution at 37° C. was added to suspend the culture solution, and centrifuged again under the same conditions. After centrifugation, the supernatant was removed, and 2 mL of the above-mentioned culture solution at 37° C. was added to the precipitate and suspended. Then, 2 mL of the suspension was added to each well to which 1 mL of a new culture medium had been added in advance. Thereafter, 30 μL of a new culture medium was added (hereinafter, this step is referred to as a “culture medium addition step”). After incubation at 37° C. in a 5% CO2 for 30 minutes, the culture supernatants of the wells were collected in 15-mL tubes, centrifuged at 1,000 rpm for 3 minutes, and the supernatants were removed by an aspirator. In addition, to the wells of the 6-well plate from which the culture supernatant was removed, 3 mL of cooled PBS (Phosphate buffered saline)/Phosphatase Inhibitors solution was added, the cells were removed by pipetting, and the cell suspension was added to the 15-mL tubes. The 15 mL tube was centrifuged at 1,000 rpm for 3 minutes, the supernatant was removed by an aspirator, and 0.5 mL of the cooled PB S/Phosphatase Inhibitors solution was added to the 15 mL tube and suspended to prepare a cell suspension. Nucleoproteins were extracted from the cell suspensions using Nuclear Extract kit (manufactured by Active Motif).
The amount of NF-κB in the nucleoprotein was confirmed by measuring the absorbance using the Trans AM NF KB p65 kit (manufactured by Active Motif).
In this example, an experiment was conducted in the same manner as in Example 4 except for the following two points, and the amount of NF-κB in the nucleoprotein was confirmed by measuring the absorbance. That is, in this example, three types of test solutions were used as the test solution, in which the concentration of the purified product was 100 ng/mL, 10,000 ng/mL, and 1,000,000 ng/mL. […]

The subject of the next assay is IL-6. Kind of assay: IL-6 production in THP-1 cells stimulated with LPSp, with or without PPARγ inhibitor GW9662 (Example 8-1). The assay is classed as cell-based, human. The conditions noted are these: final 100, 1,000 and 10,000 ng/mL, LPSp 100 ng/mL, GW9662- (PPARγ not inhibited), FIG. 8. On the procedure:
In the same manner as “(1) Preparation of test solution” in Example 3, a solution having a concentration of the purified product of 20,000 ng/mL was prepared, and the solution was serially diluted with a culture solution having the following composition, thereby obtaining a total of three test solutions having a concentration of 400 ng/mL, 4,000 ng/mL, and 40000 ng/mL. Since the three test solutions are diluted four-fold when added to the cells, the final concentrations of the purified products are 100 ng/mL, 1,000 ng/mL, and 10,000 ng/mL, respectively.
The culture medium was added to cells derived from human peripheral blood monocytes (THP-1, manufactured by DS Pharma Biomedical Co., Ltd.) to prepare solutions in which the concentrations of the cells were 4×10^5 cells/mL. The solutions were seeded in 24 well plates in 500 μL portions, i.e., 2.0×10^5 cells/500 μL/well. After seeding, 250 μL of the culture medium or 250 μL of the culture medium containing 40 μmol/L of GW9662 (manufactured by Wako Pure Chemical Industries, Ltd.) was added to the wells. The GW9662 is an inhibitor of PPARγ (Peroxisome proliferator-activated receptor γ) which is one type of nuclear receptor. After the addition, the mixture was incubated at 37° C. in a 5% CO2 for 1 hour. Thereafter, 250 μl of the test solution was added to each well, and the wells were incubated at 37° C. in a 5% CO2 for 22 hours. After culturing, the culture supernatant of each well was collected in a 2 mL tube. A new 0.5 mL of the culture medium was added to each well, spread over the whole well, and collected in the 2 mL tube. To each empty well was added 0.49 mL of fresh culture medium. The culture solution collected in the 2 mL tube was centrifuged at 1,000 rpm for 5 minutes, the supernatant was removed, and 1 mL of the fresh culture solution was added to suspend, and centrifuged again under the same conditions. After centrifugation, the supernatant was removed and 0.49 mL of culture medium in each well was added to the 2 mL tube, suspended and returned to each well. Then, 250 μL of the culture medium or 250 μL of the culture medium containing 40 μmol/L of the above GW9662 was added to the wells, and the wells were cultured at 37° C. in a 5% CO2 for 1 hour. After the incubation, 250 μL of the culture medium containing LPSp was added to the wells so that the final concentration of the LPSp was 100 ng/mL, and the wells were incubated at 37° C. in a 5% CO2 for 22 hours.
After culturing, the culture supernatants of the wells were collected in tubes, centrifuged, and the supernatants were collected in 1.5-mL tubes. The absorbance was measured using Human IL-6 ELISA MAX Deluxe (Biolegend Corporation), and the concentrations of Interleukin-6 (IL-6) were calculated.

Structures are written as SMILES.

In the case of `CCCCCC/C=C/CCCCCC(=O)OC(CCCCCCCCCCC)CC(=O)NC1C(OCC2OC(OP(=O)(O)O)C(NC(=O)CC(=O)CCCCCCCCCCC)C(OC(=O)CC(O)CCCCCCC)C2O)OC(COC2(C(=O)O)CC(OC3(C(=O)O)CC(OC4OC(C(=O)O)C(OC5OC(CO)C(O)C(O)C5O)C(O)C4O)C(O)C(C(O)CO)O3)C(OC3OC(COP(=O)(O)O)C(OC4OC(CO)C(O)C(O)C4O)C(O)C3O)C(C(O)CO)O2)C(OP(=O)(O)O)C1OC(=O)CC(O)CCCCCCC` (centres unmarked) [Formula (A1)], in the assay with NF-κB, the “amount of NF-κB in the nucleoprotein (absorbance)” value (from here on “amount of NF-κB”) is “Equivalent results were obtained”. The “IL-6 concentration in culture supernatant” value (“IL-6 concentration” for short) with IL-6 is on record as “Equivalent results were obtained”.

As to `CCCCCC/C=C/CCCCCC(=O)OC(CCCCCCCCCCC)CC(=O)NC1C(OCC2OC(OP(=O)(O)O)C(NC(=O)CC(=O)CCCCCCCCCCC)C(OC(=O)CC(O)CCCCCCC)C2O)OC(COC2(C(=O)O)CC(OC3(C(=O)O)CC(OC4OC(C(=O)O)C(OC5OC(CO)C(O)C(O)C5O)C(O)C4O)C(O)C(C(O)CO)O3)C(OC3OC(CO)C(O)C(O)C3O)C(C(O)CO)O2)C(OP(=O)(O)O)C1OC(=O)CC(O)CCCCCCC` (centres unmarked) [Formula (A2)], the “amount of NF-κB” value in the assay with NF-κB is reported as “Equivalent results were obtained”. In addition, the “IL-6 concentration” value in the assay with IL-6 was “Equivalent results were obtained”.

For the molecule `CCCCCC/C=C/CCCCCC(=O)OC(CCCCCCCCCCC)CC(=O)NC1C(OCC2OC(OP(=O)(O)O)C(NC(=O)CC(=O)CCCCCCCCCCC)C(OC(=O)CC(O)CCCCCCC)C2O)OC(COC2(C(=O)O)CC(OC3(C(=O)O)CC(O)C(OC4OC(C(=O)O)C(OC5OC(CO)C(O)C(O)C5O)C(O)C4O)C(C(O)CO)O3)C(OC3OC(COP(=O)(O)O)C(OC4OC(CO)C(O)C(O)C4O)C(O)C3O)C(C(O)CO)O2)C(OP(=O)(O)O)C1OC(=O)CC(O)CCCCCCC` (centres unmarked) [Formula (B1)], in the assay with NF-κB, the “amount of NF-κB” value is reported as “Equivalent results were obtained”. Also, the “IL-6 concentration” value in the assay with IL-6 was “Equivalent results were obtained”.

Consider `CCCCCC/C=C/CCCCCC(=O)OC(CCCCCCCCCCC)CC(=O)NC1C(OCC2OC(OP(=O)(O)O)C(NC(=O)CC(=O)CCCCCCCCCCC)C(OC(=O)CC(O)CCCCCCC)C2O)OC(COC2(C(=O)O)CC(OC3(C(=O)O)CC(O)C(OC4OC(C(=O)O)C(OC5OC(CO)C(O)C(O)C5O)C(O)C4O)C(C(O)CO)O3)C(OC3OC(CO)C(O)C(O)C3O)C(C(O)CO)O2)C(OP(=O)(O)O)C1OC(=O)CC(O)CCCCCCC` (centres unmarked) [Formula (B2)], for which the “amount of NF-κB” value in the assay with NF-κB is “Equivalent results were obtained”. In addition, the “IL-6 concentration” value with IL-6 is “Equivalent results were obtained”.
